From paper PMC2774616, “Cellular Assays for High-Throughput Screening for Modulators of Trk Receptor Tyrosine Kinases” (Current Chemical Genomics, 2008)
pEC50, pIC50: −log10 of the molar value. Where “and” joins values, the source holds several entries; their conditions need not be identical. Equal values may be shown once. Read-outs that look alike come from different tables or passages of the source. One block for each molecule: values may come before it.

How the values were obtained:
[1] = target: T1, human TrkA (Homo sapiens, UniProt P04629); assay: Inhibition of NGF-induced beta-lactamase activity in TrkA-NFAT-bla CHO-K1 cells; assay type: cell-based
T1 construct: Full length human TRKA, TRKB and TRKC cDNAs were synthesized by Blue Heron Biotechnology; expressed in transfected cells

[2] = target: T2, human TrkB (Homo sapiens, UniProt Q16620); assay: Inhibition of BDNF-induced beta-lactamase activity in TrkB-NFAT-bla CHO-K1 cells; assay type: cell-based
T2 construct: Full length human TRKA, TRKB and TRKC cDNAs were synthesized by Blue Heron Biotechnology; expressed in transfected cells

[3] = target: T3, human TrkC (Homo sapiens, UniProt Q16288); assay: Inhibition of NT-3-induced beta-lactamase activity in TrkC-NFAT-bla CHO-K1 cells; assay type: cell-based
T3 construct: Full length human TRKA, TRKB and TRKC cDNAs were synthesized by Blue Heron Biotechnology; expressed in transfected cells
Procedure: (§1) Cells in a sub-confluency state (or cryopreserved cells) were resuspended in Assay Medium (DMEM with GlutaMAX™ (Invitrogen, catalog number 10569) supplemented with 0.1% dialyzed FBS, 0.1 mM NEAA, 25 mM HEPES, 100 U/mL Penicillin and 100 µg/mL Streptomycin) and plated in a 384-well assay plate (Corning, Lowell, MA, catalog number 3712) at 10,000 cells (32 μL) per well. 32 μL of Assay Medium without cells were plated in Cell-free Control wells on the same plate. 4 µL 1% DMSO was added to each well to reach final DMSO concentration of 0.1% to mimic the screening situation where compounds dissolved in DMSO are added to test wells. Cells were then stimulated with 4 µL/well 10 x ligands (NGF, BDNF, NT-4 (Invitrogen, catalog number PHC7024), NT-3 or Thapsigargin (Sigma, St. Louis, MO)) over the indicated concentration range (1 pM ~ 50000 pM) for 5 hours before adding 8 µL/well 6X LiveBLAzer™-FRET B/G Substrate mixture (Invitrogen, catalog number K1096) for 2 hours. Fluorescence intensity at excitation 406 nm and emission 460 nm and 530 nm were obtained using Tecan Safire^2 fluorescence plate reader (Tecan, Durham, NC) (Table 1). After subtracting the average fluorescence intensity from the Cell-free Control wells, the 460nm/530nm emission ratio was calculated. Response Ratio is a measurement of the assay window and is calculated as the 460nm/530nm Emission Ratio of the stimulated wells divided by the 460nm/530nm Emission Ratio of the unstimulated wells. Response Ratios were plotted against test ligand concentrations in log scale and then analyzed using Prism software (GraphPad Software, Inc. San Diego, CA). Sigmoidal dose-response equation with varying slope was used to fit the data and generate EC50 values. Z’-factor values were calculated as: Z’-factor = 1 - [(3 x stdevunstim + 3 x stdevmaxstim) / (avgmaxstim – avgunstim)].

[4] = test system: TrkA; set-up: method as in PMID 7683492; conditions: cited from earlier work
[5] = test system: Thapsigargin-induced NFAT reporter activity, TrkA-NFAT-bla CHO-K1 cells; assay: Inhibition of Thapsigargin-induced NFAT reporter activity in TrkA-NFAT-bla CHO-K1 cells; assay type: cell-based; conditions: for pIC50: TrkA cells, Thapsigargin 8 nM, 5 h, * values may not be accurate, curves did not reach saturation, read-out: IC50, TrkA, Thaps
Procedure: as §1
(§2) Cells were then stimulated with 4 µL of neurotrophins at 10 x EC80 concentrations (EC80 concentrations are: NGF, 0.77 nM; BDNF, 1 nM; NT-3, 0.72 nM; Thapsigargin, 8 nM) for 5 hours before beta-lactamase assay was performed as described above.

[6] = test system: Thapsigargin-induced NFAT reporter activity, TrkB-NFAT-bla CHO-K1 cells; assay: Inhibition of Thapsigargin-induced NFAT reporter activity in TrkB-NFAT-bla CHO-K1 cells; assay type: cell-based; conditions: for pIC50: TrkB cells, Thapsigargin 8 nM, 5 h, * values may not be accurate, curves did not reach saturation, read-out: IC50, TrkB, Thaps
Procedure: as §1, §2

[7] = test system: Thapsigargin-induced NFAT reporter activity, TrkC-NFAT-bla CHO-K1 cells; assay: Inhibition of Thapsigargin-induced NFAT reporter activity in TrkC-NFAT-bla CHO-K1 cells; assay type: cell-based; conditions: for pIC50: TrkC cells, Thapsigargin 8 nM, 5 h, * values may not be accurate, curves did not reach saturation, read-out: IC50, TrkC, Thaps
Procedure: as §1, §2

[8] = test system: NFAT-bla reporter, Trk-NFAT-bla CHO-K1 cells; assay: Thapsigargin stimulation of Trk-NFAT-bla CHO-K1 cell lines; assay type: cell-based; conditions: used for stimulation in inhibitor assay
Procedure: as §1, with “Cells were then stimulated with 4 µL/well 10 x ligands (NGF, BDNF, NT-4 (Invitrogen, catalog number PHC7024), NT-3 or Thapsigargin (Sigma, St. Louis, MO)) over the indicated concentration range (1 pM ~ 50000 pM) for 5 hours before adding 8 µL/well 6X LiveBLAzer™-FRET B/G Substrate mixture (Invitrogen, catalog number K1096) for 2 hours.” left out, “Sigmoidal dose-response equation with varying slope was used to fit the data and generate EC50 values. Z’-factor values were calculated as: Z’-factor = 1 - [(3 x stdevunstim + 3 x stdevmaxstim) / (avgmaxstim – avgunstim)].” left out

[9] = target: T1, human TrkA; assay: Neurotrophin dose response, beta-lactamase reporter assay in TrkA-NFAT-bla CHO-K1 cells; assay type: cell-based
From the text: (§3) NFAT beta-lactamase reporter line NFAT-bla CHO-K1 cells (Invitrogen, Carlsbad, CA, catalog number K1078) were transfected using Lipofectamine™ LTX transfection reagent (Invitrogen, Carlsbad, CA) with pcDNA6-TRKA, pcDNA6-TRKB and pcDNA6-TRKC and selected for blasticidin-resistance. Blasticidin-resistant TrkA transfected cells were stimulated with NGF (Invitrogen, catalog number 13257-019), TrkB transfected cells with BDNF (Invitrogen, catalog number PHC7074) and TrkC transfected cells with NT-3 (Invitrogen, catalog number PHC7034) for 5 hours before neurotrophin stimulated beta-lactamase expressing cells were collected by FACS as single cells onto 96-well plates. The survived clones that responded to the respective ligand were selected and expanded. The clone with the best response to each ligand was further tested in a 384-well format for the dose response of neurotrophins and inhibitors and in a 96-well format for RNAi knock-down.
as §1

[10] = target: T2, human TrkB; assay: Neurotrophin dose response, beta-lactamase reporter assay in TrkB-NFAT-bla CHO-K1 cells; assay type: cell-based
From the text: as §3, §1

[11] = target: T3, human TrkC; assay: Neurotrophin dose response, beta-lactamase reporter assay in TrkC-NFAT-bla CHO-K1 cells; assay type: cell-based
From the text: as §3, §1

[12] = 30 min pretreatment, BDNF at EC80 1 nM, 5 h, read-out: IC50, TrkB, BDNF
[13] = 30 min pretreatment, NT-3 at EC80 0.72 nM, 5 h, read-out: IC50, TrkC, NT-3
[14] = at the highest concentration tested
[15] = 460nm/530nm ratio stimulated vs unstimulated
[16] = 5 h stimulation, 0.1% DMSO, * values may not be accurate, curves did not reach saturation

T1 sequence (P04629 33-796): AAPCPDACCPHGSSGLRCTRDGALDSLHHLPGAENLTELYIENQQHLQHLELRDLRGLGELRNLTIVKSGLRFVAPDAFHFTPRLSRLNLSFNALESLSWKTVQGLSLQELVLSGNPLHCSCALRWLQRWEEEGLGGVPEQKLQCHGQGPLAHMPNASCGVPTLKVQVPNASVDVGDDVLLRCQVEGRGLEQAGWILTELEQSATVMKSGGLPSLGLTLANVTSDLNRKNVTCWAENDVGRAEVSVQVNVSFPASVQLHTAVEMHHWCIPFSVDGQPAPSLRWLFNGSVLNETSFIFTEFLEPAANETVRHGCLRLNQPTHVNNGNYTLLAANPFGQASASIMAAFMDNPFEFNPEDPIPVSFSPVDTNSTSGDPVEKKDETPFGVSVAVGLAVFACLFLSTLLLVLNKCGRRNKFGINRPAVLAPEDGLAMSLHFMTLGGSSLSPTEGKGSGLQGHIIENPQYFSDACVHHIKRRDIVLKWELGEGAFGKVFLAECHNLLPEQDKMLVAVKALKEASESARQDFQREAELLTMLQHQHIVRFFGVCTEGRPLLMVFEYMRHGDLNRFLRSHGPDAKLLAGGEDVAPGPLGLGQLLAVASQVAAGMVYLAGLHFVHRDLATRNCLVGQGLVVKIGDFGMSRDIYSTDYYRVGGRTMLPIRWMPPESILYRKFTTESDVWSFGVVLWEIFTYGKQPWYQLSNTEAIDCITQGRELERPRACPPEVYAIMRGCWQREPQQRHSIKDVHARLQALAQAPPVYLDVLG
T2 sequence (Q16620 32-838 isoform Q16620-4 limits assumed): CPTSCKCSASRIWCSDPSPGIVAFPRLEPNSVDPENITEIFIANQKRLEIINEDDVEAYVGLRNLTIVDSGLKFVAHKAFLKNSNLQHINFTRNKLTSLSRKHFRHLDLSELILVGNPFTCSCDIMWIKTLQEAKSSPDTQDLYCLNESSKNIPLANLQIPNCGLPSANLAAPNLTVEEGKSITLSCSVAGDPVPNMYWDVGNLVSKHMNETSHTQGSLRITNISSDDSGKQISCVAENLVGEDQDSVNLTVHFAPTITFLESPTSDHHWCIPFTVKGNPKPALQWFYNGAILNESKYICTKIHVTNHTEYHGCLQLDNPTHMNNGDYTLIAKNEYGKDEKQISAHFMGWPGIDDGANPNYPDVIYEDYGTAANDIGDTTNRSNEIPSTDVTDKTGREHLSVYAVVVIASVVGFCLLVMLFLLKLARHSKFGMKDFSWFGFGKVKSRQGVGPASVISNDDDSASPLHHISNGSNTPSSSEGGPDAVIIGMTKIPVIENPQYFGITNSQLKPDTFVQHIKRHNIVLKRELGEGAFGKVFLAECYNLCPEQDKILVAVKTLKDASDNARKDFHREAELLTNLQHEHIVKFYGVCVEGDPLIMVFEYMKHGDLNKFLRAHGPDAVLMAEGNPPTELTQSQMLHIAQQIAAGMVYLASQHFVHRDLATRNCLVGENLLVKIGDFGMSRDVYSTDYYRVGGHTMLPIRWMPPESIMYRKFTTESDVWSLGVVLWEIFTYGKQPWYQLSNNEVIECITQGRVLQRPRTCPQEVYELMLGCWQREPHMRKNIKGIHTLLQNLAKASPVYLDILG
T3 sequence (Q16288 32-825 isoform Q16288-3 limits assumed): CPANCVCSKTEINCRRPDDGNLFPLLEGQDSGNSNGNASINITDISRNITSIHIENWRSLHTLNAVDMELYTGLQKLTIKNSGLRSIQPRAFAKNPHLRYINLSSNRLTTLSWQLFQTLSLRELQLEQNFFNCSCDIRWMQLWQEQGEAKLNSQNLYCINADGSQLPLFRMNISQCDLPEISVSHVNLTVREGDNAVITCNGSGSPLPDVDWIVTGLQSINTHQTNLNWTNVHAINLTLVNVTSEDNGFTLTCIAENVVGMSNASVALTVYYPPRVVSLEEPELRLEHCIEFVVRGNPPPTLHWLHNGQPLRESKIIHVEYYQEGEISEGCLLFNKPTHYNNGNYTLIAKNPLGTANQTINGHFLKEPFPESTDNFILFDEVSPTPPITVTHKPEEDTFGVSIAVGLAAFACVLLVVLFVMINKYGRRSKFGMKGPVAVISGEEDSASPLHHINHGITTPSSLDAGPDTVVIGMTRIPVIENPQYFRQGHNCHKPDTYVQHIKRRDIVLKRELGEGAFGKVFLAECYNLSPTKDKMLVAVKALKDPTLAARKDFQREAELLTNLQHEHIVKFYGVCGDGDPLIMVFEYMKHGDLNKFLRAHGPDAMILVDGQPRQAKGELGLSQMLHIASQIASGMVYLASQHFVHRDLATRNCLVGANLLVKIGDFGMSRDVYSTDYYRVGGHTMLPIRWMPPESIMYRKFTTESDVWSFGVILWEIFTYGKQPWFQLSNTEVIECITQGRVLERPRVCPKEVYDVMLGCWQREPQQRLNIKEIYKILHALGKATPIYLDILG

- pIC50 ([1]; 30 min pretreatment, NGF at EC80 0.77 nM, 5 h, read-out: IC50, TrkA, NGF): 5.88
- pIC50 ([1]; NGF-induced, read-out: IC50, TrkA-mediated NFAT-bla reporter activity): ~6.00
- pIC50 [2, 12]: 6.00
- pIC50 ([2]; BDNF-induced, read-out: IC50, TrkB-mediated NFAT-bla reporter activity): ~6.00
- pIC50 [3, 13]: 5.88
- pIC50 ([3]; NT-3-induced, read-out: IC50, TrkC-mediated NFAT-bla reporter activity): ~6.00
Molecule: CC(C)(C)c1cc(/C=C(\C#N)C(N)=S)cc(C(C)(C)C)c1O [AG879]
- concentrations inhibiting NGF induced TrkA autophosphorylation and PLC-γ phosphorylation [4]: micro-molar concentrations
- pIC50 [5]: 6.95
- pIC50 [6]: 7.29
- pIC50 [7]: 6.64

Molecule: Cn1cc(/C=C2\C(=O)Nc3cccnc32)c2ccccc21 [GW441756]
- pIC50 [5]: 5.55
- pIC50 [6]: 5.09
- pIC50 [7]: 5.05

Molecule: COC(=O)[C@@]1(O)C[C@H]2O[C@]1(C)n1c3ccccc3c3c4c(c5c6ccccc6n2c5c31)C(=O)NC4 [K252a]
- IC50 in words, BDNF-induced beta-lactamase activity in TrkB cells [2]: low nano-molar
- pIC50 [2, 12]: 7.96
- IC50 in words, NT-3-induced beta-lactamase activity in TrkC cells [3]: low nano-molar
- pIC50 [3, 13]: 7.52
- pIC50 [5]: 6.24
- effect on Thapsigargin induced reporter activity, TrkA cells (in words) [5, 14]: partial inhibitory effect
- pIC50 [6]: < 6.00
- effect on Thapsigargin induced reporter activity, TrkB cells (in words) [6, 14]: partial inhibitory effect
- pIC50 [7]: 6.30
- effect on Thapsigargin induced reporter activity, TrkC cells (in words) [7, 14]: partial inhibitory effect

Molecule: C/C=C(/C)C(=O)O[C@H]1C(C)=C2[C@H]([C@@H]1OC(=O)CCCCCCC)[C@@](C)(OC(C)=O)C[C@H](OC(=O)CCC)[C@@]1(O)[C@H]2OC(=O)[C@@]1(C)O [Thapsigargin]
- EC80 concentration, Thapsigargin [8]: 8 nM

- maximum response ratio / response over baseline, TrkA-NFAT-bla CHO-K1 [9, 15]: 3 fold
- pEC50 [9, 16]: ~7.80 and 7.80
- maximum response ratio, TrkB-NFAT-bla CHO-K1 [10, 15]: 13
- pEC50 ([10]; 5 h stimulation, 0.1% DMSO): 8.60
- maximum response ratio, TrkC-NFAT-bla CHO-K1 [11, 15]: 8.5
- pEC50 [11, 16]: 10.03 and 10.05
- EC80 concentration, TrkC cells ([11]; used for stimulation in inhibitor assay): 0.72 nM
Molecule: NT-3: neurotrophin 3, preferred ligand of TrkC
